Test results reported in PubChem BioAssay (NCI).
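Following 48 hours of exposure in 96-well plates, responses at five concentrations were used to interpolate endpoints linearly. GI50 = concentration required for 50% inhibition of growth. TGI is the concentration that stops growth completely.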

Experiments:
Test in all cases: inhibition of tumour cell growth, NCI panel, 48 h; in the data active = GI50 below about 0.43 µM; inactive = the rest
[1] = tested on: LOX IMVI melanoma
[2] = tested on: ACHN renal
[3] = tested on: NCI-H23 lung
[4] = tested on: MDA-MB-468 breast
[5] = tested on: BT-549 breast
[6] = tested on: OVCAR-4 ovarian
[7] = tested on: SNB-19 CNS
[8] = tested on: T-47D breast
[9] = tested on: HCC-2998 colon
[10] = tested on: CCRF-CEM leukemia
[11] = tested on: M14 melanoma
[12] = tested on: A549 NSCLC
[13] = tested on: U251 CNS
[14] = tested on: SN12C renal
[15] = tested on: SK-MEL-5 melanoma
[16] = tested on: MDA-MB-435
[17] = tested on: UACC-62 melanoma
[18] = tested on: HCT-116 colon
[19] = tested on: CAKI-1 renal
[20] = tested on: SK-OV-3 ovarian
[21] = tested on: IGROV1 ovarian
[22] = tested on: NCI-H460 lung
[23] = tested on: UACC-257 melanoma
[24] = tested on: SK-MEL-2 melanoma
[25] = tested on: MALME-3M melanoma
[26] = tested on: HS 578T breast
[27] = tested on: UO-31 renal
[28] = tested on: HOP-92 NSCLC
[29] = tested on: HL-60(TB) leukemia
[30] = tested on: TK-10 renal
[31] = tested on: MCF7 breast
[32] = tested on: EKVX NSCLC
[33] = tested on: SF-268 CNS
[34] = tested on: NCI-H522 lung
[35] = tested on: DU-145 prostate
[36] = tested on: SR leukemia
[37] = tested on: RPMI-8226 leukemia
[38] = tested on: HOP-62 NSCLC
[39] = tested on: SW-620 colon
[40] = tested on: SNB-75 CNS
[41] = tested on: K-562 leukemia
[42] = tested on: SK-MEL-28 melanoma
[43] = tested on: NCI/ADR-RES ovarian
[44] = tested on: COLO 205 colon
[45] = tested on: MOLT-4 leukemia
[46] = tested on: OVCAR-3 ovarian
[47] = tested on: OVCAR-8 ovarian
[48] = tested on: HCT-15 colon
[49] = tested on: SF-539 CNS
[50] = tested on: OVCAR-5 ovarian
[51] = tested on: KM12 colon
[52] = tested on: SF-295 CNS
[53] = tested on: PC-3 prostate
[54] = tested on: HT29 colon
[55] = tested on: A498 renal
[56] = tested on: 786-0 renal
[57] = tested on: RXF 393 renal
[58] = tested on: NCI-H226 lung
[59] = tested on: MDA-MB-231 breast

COc1cc(-c2nc3cc(Cl)c(Cl)cc3[nH]2)ccc1OCc1nnc(-c2ccc(Br)cc2)o1
5.9 µM: TGI [36]
7.74 µM: TGI [5]
10.7 µM: TGI [52]
31.7 µM: TGI [18]
4.81 µM: TGI [58]
7.33 µM: TGI [14]
28.4 µM: TGI [4]
17.8 µM: TGI [38]
28.3 µM: TGI [19]
25.3 µM: TGI [11]
4.12 µM: TGI [6]
13.1 µM: TGI [56]
4.95 µM: TGI [8]
3.87 µM: TGI [40]
35.6 µM: TGI [23]
27.5 µM: TGI [31]
7.52 µM: TGI [29]
7.81 µM: TGI [28]
13.2 µM: TGI [15]
4.99 µM: TGI [2]
3.51 µM: TGI [49]
7.36 µM: TGI [48]
16.4 µM: TGI [25]
5.3 µM: TGI [59]
10.9 µM: TGI [46]
4.61 µM: TGI [27] | TGI [57]
17.5 µM: TGI [30]
13.5 µM: TGI [17]
8.25 µM: TGI [37]
20 µM: TGI [13] | TGI [16]
19 µM: TGI [42]
inactive: GI50 [1] 2.93 µM | GI50 [2] 2.19 µM | GI50 [3] 4.99 µM | GI50 [4] 5.98 µM | GI50 [5] 3.2 µM | GI50 [6] 1.92 µM | GI50 [7] 14.7 µM | GI50 [8] 2.06 µM | GI50 [9] 29.2 µM | GI50 [10] 6.07 µM | GI50 [11] 6.68 µM | GI50 [12] 7.14 µM | GI50 [13] 3.82 µM | GI50 [14] 2.56 µM | GI50 [15] 3.16 µM | GI50 [16] 3.97 µM | GI50 [17] 3.05 µM | GI50 [18] 4.43 µM | GI50 [19] 13 µM | GI50 [20] 11.5 µM | GI50 [21] 11.5 µM | GI50 [22] 6.43 µM | GI50 [23] 11.7 µM | GI50 [24] 15.7 µM | GI50 [25] 3.25 µM | GI50 [26] 2.72 µM | GI50 [27] 1.89 µM | GI50 [28] 2.35 µM | GI50 [29] 2.61 µM | GI50 [30] 4.37 µM | GI50 [31] 3.28 µM | GI50 [32] 13.3 µM | GI50 [33] 6.22 µM | GI50 [34] 4.53 µM | GI50 [35] 10.1 µM | GI50 [36] 2.21 µM | GI50 [37] 2.68 µM | GI50 [38] 4.17 µM | GI50 [39] 5.07 µM | GI50 [40] 1.56 µM | GI50 [41] 4.8 µM | GI50 [42] 3.59 µM | GI50 [43] 3.42 µM | GI50 [44] 24.6 µM | GI50 [45] 3.72 µM | GI50 [46] 3.33 µM | GI50 [47] 2.85 µM | GI50 [48] 2.53 µM | GI50 [49] 1.81 µM | GI50 [50] 5.59 µM | GI50 [51] 52 µM | GI50 [52] 3.13 µM | GI50 [53] 4.27 µM | GI50 [54] 3.61 µM | GI50 [55] 2.9 µM | GI50 [56] 3.55 µM | GI50 [57] 1.87 µM | GI50 [58] 1.82 µM | GI50 [59] 2.22 µM
8.27 µM: TGI [26]
38.3 µM: TGI [20]
9.17 µM: TGI [55]
> 100 µM: TGI [3] | TGI [7] | TGI [9] | TGI [10] | TGI [12] | TGI [21] | TGI [22] | TGI [32] | TGI [33] | TGI [34] | TGI [35] | TGI [39] | TGI [41] | TGI [43] | TGI [44] | TGI [45] | TGI [50] | TGI [51] | TGI [53] | TGI [54]
7.78 µM: TGI [47]
10.8 µM: TGI [1]
35 µM: TGI [24]
